A short description of this experiment: Viscosity of cystic fibrosis mucus before and after incubation with Compositions 5-12 (Experimental Part II). Details: species or system human. The conditions noted are these: mucus from patients, in vitro.

`CC(=O)N[C@@H](CS)C(=O)O` [N-acetylcysteine, 2R-acetamido-3-sulfanylpropanoic acid]: the “Effect on viscosity of bronchial mucus (in words)” value is on record as “effective at reducing the viscosity of bronchial mucus”.

The record behind these values is patent US20210315810A1, “COMPOSITION CONTAINING A MUCOLYTIC AGENT FOR THE TREATMENT OF MUCUS HYPERSECRETION AND A DEVICE FOR THE DOSING THEREOF” (SOFAR S.P.A., priority 2018, published 2021).
